Data on one molecule can be found in US20090131470A1, “PYRAZOLE-SUBSTITUTED BENZIMIDAZOLE DERIVATIVES FOR USE IN THE TREATMENT OF CANCER AND AUTOIMMUNE DISORDERS” (priority 2005, published 2009).

What all share (type): biochemical
In one test the target is PDGFRa (Homo sapiens, UniProt P16234). The test can be described thus: Kinase selectivity screening (example 14).
In a further test the target is Syk (Homo sapiens, UniProt P43405). The test can be described thus: Kinase selectivity screening (example 14).
For another test, the target named is Flt1 (Homo sapiens, UniProt P17948). Briefly: Kinase selectivity screening (example 14).
Test [1] has as its target CDK-2 enzyme, complexed with cyclin A (Homo sapiens, UniProt P24941). The test can be described thus: CDK2 kinase assay (33P peptide phosphorylation). Particulars: 0.1 mM ATP, cyclin A complex.
In a further test the target is FGFR2 (Homo sapiens, UniProt P21802). Briefly: Kinase selectivity screening (example 14).
The target of another test is KDR (Homo sapiens, UniProt P35968). The test can be described thus: Kinase selectivity screening (example 14).
The next test has as its target FGFR4 (Homo sapiens, UniProt P22455). The test can be described thus: Kinase selectivity screening (example 14).
The next test has as its target Tie2 (Homo sapiens, UniProt Q02763). Briefly: Kinase selectivity screening (example 14).
In the next test the target is EGFR (Homo sapiens, UniProt P00533). The test can be described thus: Kinase selectivity screening (example 14).
The target of another test is T1, PDK1 (Homo sapiens, UniProt O15530).
T1 sequence (O15530 1-556): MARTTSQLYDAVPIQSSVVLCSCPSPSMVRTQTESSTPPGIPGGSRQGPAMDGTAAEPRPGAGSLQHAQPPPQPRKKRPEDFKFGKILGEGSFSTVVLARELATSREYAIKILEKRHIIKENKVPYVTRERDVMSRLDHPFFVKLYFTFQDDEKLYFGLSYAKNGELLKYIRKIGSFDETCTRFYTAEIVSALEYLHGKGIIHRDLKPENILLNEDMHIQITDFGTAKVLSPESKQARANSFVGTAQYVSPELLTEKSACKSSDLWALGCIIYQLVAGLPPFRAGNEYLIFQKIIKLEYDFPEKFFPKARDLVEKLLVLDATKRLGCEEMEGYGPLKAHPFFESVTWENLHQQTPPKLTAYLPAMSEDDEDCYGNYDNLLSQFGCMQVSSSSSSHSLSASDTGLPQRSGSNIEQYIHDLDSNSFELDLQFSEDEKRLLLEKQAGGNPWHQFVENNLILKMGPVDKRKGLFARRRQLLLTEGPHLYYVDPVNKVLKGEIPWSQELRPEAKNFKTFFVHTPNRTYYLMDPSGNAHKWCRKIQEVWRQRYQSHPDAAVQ
Briefly: PDK1 kinase assay (33P peptide phosphorylation). The note with it: 0.01 mM ATP, 60 min at 30° C.; read-out: PDK-1 IC50.

Another test deals with T2, PKA (Homo sapiens, UniProt P17612).
T2 construct: purchased Upstate
Briefly: PKA kinase assay (Kemptide substrate). The note with it: 100 μM ATP.

A further test concerns the target FGFR3 (Homo sapiens, UniProt P22607). Briefly: Kinase selectivity screening (example 14).
A further test addresses FGFR1 (Homo sapiens, UniProt P11362). The test can be described thus: Kinase selectivity screening (example 14).
A further test deals with T3, ITK (Homo sapiens, UniProt Q08881).
T3 sequence (Q08881 1-620): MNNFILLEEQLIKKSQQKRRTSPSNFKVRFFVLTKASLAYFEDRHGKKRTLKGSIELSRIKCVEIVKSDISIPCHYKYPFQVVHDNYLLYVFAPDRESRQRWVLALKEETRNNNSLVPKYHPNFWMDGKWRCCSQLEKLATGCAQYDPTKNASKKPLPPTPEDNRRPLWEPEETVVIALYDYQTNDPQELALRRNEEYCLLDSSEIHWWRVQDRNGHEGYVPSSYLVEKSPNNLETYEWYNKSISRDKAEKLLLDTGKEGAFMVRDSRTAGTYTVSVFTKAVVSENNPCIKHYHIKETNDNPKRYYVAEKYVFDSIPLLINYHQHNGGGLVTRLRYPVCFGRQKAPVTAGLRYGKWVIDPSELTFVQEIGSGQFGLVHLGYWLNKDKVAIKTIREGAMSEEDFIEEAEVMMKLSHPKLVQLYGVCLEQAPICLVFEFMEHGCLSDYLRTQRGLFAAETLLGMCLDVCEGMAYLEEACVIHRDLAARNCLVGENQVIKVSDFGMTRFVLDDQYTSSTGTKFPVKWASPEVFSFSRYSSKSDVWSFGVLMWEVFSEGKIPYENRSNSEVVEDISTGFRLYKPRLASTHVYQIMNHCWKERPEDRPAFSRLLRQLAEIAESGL
The test can be described thus: Kinase selectivity screening (example 14).

A value given as a limit tells only on which side of the number the result lay.

PDGFRa, sequence (P16234 24-1089): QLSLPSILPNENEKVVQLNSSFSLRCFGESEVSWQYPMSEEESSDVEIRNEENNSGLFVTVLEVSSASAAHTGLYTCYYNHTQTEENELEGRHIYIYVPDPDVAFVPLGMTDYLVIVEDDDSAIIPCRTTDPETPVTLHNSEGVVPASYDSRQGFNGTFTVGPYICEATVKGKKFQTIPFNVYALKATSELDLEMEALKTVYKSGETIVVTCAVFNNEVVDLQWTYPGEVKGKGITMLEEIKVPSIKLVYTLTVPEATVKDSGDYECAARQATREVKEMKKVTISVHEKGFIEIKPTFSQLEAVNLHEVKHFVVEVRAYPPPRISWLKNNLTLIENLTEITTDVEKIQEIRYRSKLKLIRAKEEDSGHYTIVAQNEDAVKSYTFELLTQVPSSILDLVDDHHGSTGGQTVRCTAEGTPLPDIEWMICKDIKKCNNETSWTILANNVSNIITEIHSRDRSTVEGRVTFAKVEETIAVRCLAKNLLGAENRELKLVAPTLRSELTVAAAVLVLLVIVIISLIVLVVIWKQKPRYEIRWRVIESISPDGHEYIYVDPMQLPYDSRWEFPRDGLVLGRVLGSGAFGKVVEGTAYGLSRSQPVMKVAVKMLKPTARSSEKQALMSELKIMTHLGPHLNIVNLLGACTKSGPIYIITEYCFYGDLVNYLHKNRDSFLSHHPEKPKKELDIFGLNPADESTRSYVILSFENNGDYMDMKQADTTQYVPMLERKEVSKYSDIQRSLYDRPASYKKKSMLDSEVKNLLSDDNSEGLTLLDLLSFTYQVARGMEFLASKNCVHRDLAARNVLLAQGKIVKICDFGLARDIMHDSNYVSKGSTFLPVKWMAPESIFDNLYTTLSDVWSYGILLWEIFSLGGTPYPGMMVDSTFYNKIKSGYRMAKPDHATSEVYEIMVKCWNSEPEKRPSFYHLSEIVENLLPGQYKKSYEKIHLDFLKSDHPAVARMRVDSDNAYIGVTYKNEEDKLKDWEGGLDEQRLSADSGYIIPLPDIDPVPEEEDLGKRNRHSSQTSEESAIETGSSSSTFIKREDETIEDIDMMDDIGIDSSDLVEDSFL
FGFR3, sequence (P22607 23-806, species assumed): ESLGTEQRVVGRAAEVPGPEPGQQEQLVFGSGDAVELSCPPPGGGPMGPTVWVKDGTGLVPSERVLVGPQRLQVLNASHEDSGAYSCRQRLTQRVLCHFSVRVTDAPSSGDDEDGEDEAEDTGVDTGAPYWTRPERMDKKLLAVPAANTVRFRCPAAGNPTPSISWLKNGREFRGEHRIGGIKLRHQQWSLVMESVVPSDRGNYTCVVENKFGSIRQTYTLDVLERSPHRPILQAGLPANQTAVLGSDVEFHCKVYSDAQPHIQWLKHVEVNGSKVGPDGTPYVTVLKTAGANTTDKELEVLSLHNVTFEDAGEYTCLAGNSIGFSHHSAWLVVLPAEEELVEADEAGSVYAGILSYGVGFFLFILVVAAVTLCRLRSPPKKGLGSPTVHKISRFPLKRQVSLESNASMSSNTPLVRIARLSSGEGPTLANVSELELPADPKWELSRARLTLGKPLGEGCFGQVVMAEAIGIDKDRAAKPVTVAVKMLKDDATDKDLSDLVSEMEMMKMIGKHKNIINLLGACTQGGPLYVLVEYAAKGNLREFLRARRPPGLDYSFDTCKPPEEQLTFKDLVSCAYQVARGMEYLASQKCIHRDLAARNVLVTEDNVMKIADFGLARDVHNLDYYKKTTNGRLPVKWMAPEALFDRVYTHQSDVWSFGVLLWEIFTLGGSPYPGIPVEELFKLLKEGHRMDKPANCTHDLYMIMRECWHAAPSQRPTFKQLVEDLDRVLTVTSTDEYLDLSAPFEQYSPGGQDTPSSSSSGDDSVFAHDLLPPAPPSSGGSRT
Flt1, sequence (P17948 27-1338, species assumed): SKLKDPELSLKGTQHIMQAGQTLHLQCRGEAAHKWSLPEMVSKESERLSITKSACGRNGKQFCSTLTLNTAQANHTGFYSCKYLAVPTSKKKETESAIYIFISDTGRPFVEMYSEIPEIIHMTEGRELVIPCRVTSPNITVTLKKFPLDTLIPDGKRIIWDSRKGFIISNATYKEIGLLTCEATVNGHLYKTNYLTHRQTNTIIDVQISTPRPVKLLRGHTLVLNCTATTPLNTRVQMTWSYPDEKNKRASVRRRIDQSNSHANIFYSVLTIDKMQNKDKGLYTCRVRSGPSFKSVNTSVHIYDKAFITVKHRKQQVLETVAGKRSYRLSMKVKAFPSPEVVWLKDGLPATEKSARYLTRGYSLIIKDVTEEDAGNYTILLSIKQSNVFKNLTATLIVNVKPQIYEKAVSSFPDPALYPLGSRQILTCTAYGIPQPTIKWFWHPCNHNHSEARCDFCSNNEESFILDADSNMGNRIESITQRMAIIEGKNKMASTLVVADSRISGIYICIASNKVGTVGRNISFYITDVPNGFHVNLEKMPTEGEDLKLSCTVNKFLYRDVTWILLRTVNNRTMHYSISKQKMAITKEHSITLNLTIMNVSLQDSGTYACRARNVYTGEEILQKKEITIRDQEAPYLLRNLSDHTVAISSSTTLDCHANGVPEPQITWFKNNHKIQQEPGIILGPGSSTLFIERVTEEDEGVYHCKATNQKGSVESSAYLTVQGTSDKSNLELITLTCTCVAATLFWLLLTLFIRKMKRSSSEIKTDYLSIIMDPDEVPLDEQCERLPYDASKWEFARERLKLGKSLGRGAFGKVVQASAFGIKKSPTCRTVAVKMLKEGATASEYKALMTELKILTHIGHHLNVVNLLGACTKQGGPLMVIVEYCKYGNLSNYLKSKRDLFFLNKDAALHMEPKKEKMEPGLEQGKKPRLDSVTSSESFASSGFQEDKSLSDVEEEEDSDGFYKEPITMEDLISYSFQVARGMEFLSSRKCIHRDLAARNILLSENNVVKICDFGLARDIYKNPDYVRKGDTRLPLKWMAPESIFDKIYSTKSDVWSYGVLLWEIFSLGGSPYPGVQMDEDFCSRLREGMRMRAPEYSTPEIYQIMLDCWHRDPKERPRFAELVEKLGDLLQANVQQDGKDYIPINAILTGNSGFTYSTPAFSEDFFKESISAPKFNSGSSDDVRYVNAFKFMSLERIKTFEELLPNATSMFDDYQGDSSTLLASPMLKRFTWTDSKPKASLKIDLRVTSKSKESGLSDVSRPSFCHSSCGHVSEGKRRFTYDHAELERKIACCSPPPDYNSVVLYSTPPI
FGFR2, sequence (P21802 22-821, species assumed): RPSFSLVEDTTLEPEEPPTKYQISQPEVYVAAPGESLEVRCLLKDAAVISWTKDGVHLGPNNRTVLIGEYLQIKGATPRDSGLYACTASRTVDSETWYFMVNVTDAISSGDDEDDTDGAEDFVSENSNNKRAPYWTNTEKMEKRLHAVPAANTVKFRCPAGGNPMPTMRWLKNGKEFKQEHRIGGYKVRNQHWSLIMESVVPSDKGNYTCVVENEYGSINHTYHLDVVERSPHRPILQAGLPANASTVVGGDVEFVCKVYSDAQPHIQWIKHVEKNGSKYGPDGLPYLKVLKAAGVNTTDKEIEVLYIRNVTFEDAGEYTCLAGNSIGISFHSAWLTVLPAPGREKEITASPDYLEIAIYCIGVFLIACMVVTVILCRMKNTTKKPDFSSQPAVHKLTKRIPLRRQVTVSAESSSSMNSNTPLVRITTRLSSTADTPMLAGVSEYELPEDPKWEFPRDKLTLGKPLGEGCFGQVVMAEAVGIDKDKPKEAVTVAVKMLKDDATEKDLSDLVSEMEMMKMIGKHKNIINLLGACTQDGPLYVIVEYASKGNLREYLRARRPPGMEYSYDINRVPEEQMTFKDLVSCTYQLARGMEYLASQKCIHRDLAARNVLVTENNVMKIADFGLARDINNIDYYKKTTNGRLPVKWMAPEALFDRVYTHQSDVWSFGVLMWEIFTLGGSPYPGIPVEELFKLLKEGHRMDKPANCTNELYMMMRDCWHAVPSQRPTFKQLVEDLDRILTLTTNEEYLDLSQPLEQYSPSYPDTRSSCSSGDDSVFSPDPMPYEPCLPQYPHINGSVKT
FGFR1, sequence (P11362 22-822, species assumed): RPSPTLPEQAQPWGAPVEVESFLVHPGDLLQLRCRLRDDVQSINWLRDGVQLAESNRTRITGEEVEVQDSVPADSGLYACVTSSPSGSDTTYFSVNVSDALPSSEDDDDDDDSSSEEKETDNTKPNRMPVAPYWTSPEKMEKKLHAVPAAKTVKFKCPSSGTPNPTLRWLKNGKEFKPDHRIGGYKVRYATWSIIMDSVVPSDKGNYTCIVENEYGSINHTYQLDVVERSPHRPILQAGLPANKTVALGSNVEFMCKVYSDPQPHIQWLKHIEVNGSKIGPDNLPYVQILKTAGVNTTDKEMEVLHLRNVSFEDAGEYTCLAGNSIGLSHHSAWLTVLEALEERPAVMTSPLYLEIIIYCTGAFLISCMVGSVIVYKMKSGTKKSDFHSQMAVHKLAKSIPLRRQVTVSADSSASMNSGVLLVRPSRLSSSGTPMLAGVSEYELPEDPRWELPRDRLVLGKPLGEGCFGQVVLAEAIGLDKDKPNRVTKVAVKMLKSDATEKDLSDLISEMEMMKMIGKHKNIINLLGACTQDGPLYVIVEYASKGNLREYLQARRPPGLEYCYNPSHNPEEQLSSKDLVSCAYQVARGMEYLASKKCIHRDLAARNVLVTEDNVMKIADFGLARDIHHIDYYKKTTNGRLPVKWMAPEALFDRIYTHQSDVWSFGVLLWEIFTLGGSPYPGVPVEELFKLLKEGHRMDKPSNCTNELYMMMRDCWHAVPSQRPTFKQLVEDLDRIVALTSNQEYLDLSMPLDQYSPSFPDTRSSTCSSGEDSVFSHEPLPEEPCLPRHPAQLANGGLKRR

Usually IC50 stands for the point on the concentration scale where inhibition reaches its midpoint. On to `Cc1[nH]nc(-c2nc3cc4cn[nH]c4cc3[nH]2)c1C(=O)NC1CCNCC1` [Example 14], for which the “selectivity versus PDGFRa” value on PDGFRa is listed as > 20 fold. The “selectivity versus Syk” value at Syk is on record as > 20 fold. Also, at Flt1, the “selectivity versus Flt1” value is > 20 fold. Besides, the IC50 was determined as 5.11 µM in test [1], 0.01 µM at PDK1 and 7.2 µM against PKA. Further, the “selectivity versus FGFR2” value at FGFR2 is > 20 fold. Further, the “selectivity versus KDR” value at KDR was > 20 fold. In addition, the “selectivity versus FGFR4” value at FGFR4 is > 20 fold. Besides, the “selectivity versus Tie2” value on Tie2 is recorded as > 20 fold. At EGFR, the “selectivity versus EGFR” value is recorded as > 20 fold. For the same molecule, on FGFR3, the “selectivity versus FGFR3” value is on record as > 20 fold. The “selectivity versus FGFR1” value at FGFR1 is on record as > 20 fold. On ITK, the “selectivity versus ITK” value is listed as > 20 fold.
